Measured values reported in ChEMBL document CHEMBL5360651, “Progress on the Pharmacological Targeting of Janus Pseudokinases” (J Med Chem, 2023).

Legend:
[1] = molecular target: T1, Non-receptor tyrosine-protein kinase TYK2 (Homo sapiens, UniProt P29597); experiment: Inhibition of TYK2 JH2 in human KIT225 cells assessed as reduction of IFNalpha induced STAT1 phosphorylation by AlphaLISA assay; format: cell-based
[2] = Half life in human liver microsomes; format: ADME, Microsome
[3] = molecular target: Voltage-gated inwardly rectifying potassium channel KCNH2 (Homo sapiens, UniProt Q12809); experiment: Inhibition of hERG by fluorescence polarization method; format: toxicity
[4] = Inhibition of JAK1 JH2 (unknown origin); set-up: species or system Homo sapiens
[5] = Inhibition of PDE4 (unknown origin) by HTRF assay; set-up: species or system Homo sapiens
[6] = Solubility of compound at pH 6.5; format: physicochemical; details: buffer
[7] = molecular target: T2, Tyrosine-protein kinase JAK3 (Homo sapiens, UniProt P52333); experiment: Inhibition of JAK3 signaling pathway in human PBMC cells assessed as reduction of IL-2 induced STAT5 phosphorylation; format: cell-based
T2 sequence (P52333 whole entry): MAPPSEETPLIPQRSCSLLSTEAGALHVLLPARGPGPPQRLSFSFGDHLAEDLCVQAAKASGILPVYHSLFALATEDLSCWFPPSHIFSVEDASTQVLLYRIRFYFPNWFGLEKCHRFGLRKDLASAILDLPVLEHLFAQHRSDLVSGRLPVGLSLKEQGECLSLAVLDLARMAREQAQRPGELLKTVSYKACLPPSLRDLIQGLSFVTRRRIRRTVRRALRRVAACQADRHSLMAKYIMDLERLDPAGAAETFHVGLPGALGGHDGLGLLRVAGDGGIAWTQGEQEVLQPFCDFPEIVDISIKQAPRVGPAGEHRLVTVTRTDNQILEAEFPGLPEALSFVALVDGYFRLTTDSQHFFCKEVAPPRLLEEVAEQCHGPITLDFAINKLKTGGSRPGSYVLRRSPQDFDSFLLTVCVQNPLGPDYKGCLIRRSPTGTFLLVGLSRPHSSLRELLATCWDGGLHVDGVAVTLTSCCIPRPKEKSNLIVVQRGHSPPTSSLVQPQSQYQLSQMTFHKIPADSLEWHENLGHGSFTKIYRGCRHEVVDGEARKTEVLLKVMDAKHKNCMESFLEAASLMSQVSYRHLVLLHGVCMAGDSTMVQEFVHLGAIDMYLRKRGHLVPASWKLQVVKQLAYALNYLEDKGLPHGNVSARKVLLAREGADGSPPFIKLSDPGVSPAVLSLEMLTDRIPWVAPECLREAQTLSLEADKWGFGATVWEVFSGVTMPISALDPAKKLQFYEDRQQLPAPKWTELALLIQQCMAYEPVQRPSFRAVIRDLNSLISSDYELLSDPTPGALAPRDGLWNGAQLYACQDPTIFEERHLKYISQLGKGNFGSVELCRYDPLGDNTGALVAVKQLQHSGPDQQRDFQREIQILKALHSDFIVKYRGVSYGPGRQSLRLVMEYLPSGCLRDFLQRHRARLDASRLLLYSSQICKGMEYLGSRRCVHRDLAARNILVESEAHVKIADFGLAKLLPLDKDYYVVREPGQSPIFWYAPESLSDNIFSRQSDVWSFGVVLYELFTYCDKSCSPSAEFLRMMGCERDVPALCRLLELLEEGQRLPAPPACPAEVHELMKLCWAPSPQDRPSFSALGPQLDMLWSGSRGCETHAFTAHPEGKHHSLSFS

[8] = molecular target: T1, Non-receptor tyrosine-protein kinase TYK2; experiment: Inhibition of TYK2 signalling pathway in human PBMC cells assessed as IFN alpha induced p-STAT1 level; format: cell-based
[9] = molecular target: T1, Non-receptor tyrosine-protein kinase TYK2; experiment: Inhibition of TYK2 signalling pathway in human PBMC cells assessed as IFN alpha induced p-STAT3 level; format: cell-based
[10] = molecular target: T3, Tyrosine-protein kinase JAK2 (Homo sapiens, UniProt O60674)
[11] = molecular target: T1, Non-receptor tyrosine-protein kinase TYK2; format: cell-based, Sf9
[12] = molecular target: T1, Non-receptor tyrosine-protein kinase TYK2; format: cell-based, Sf9; remark: listed apart in the source
[13] = molecular target: T4, Tyrosine-protein kinase JAK1 (Homo sapiens, UniProt P23458)
[14] = molecular target: T4, Tyrosine-protein kinase JAK1; remark: listed apart in the source
[15] = molecular target: T3, Tyrosine-protein kinase JAK2; experiment: Binding affinity to wild type JAK2 JH2 (unknown origin)
[16] = molecular target: Tyrosine-protein kinase JAK2 (Homo sapiens, UniProt O60674, V617F); experiment: Binding affinity to JAK2 V617F mutant (unknown origin) assessed as dissociation constant
[17] = molecular target: T1, Non-receptor tyrosine-protein kinase TYK2; experiment: Inhibition of human recombinant N-terminal His-tagged TYK2 (575 to 869 residues) expressed in baculovirus infected Sf9 cells at 1 uM incubated for 30 mins by scintillation method
[18] = molecular target: T5, Inhibitor of nuclear factor kappa-B kinase subunit beta (Homo sapiens) (UniProt O14920); experiment: Inhibition of IKKbeta (unknown origin) at 1 uM relative to control
T5 sequence (whole entry): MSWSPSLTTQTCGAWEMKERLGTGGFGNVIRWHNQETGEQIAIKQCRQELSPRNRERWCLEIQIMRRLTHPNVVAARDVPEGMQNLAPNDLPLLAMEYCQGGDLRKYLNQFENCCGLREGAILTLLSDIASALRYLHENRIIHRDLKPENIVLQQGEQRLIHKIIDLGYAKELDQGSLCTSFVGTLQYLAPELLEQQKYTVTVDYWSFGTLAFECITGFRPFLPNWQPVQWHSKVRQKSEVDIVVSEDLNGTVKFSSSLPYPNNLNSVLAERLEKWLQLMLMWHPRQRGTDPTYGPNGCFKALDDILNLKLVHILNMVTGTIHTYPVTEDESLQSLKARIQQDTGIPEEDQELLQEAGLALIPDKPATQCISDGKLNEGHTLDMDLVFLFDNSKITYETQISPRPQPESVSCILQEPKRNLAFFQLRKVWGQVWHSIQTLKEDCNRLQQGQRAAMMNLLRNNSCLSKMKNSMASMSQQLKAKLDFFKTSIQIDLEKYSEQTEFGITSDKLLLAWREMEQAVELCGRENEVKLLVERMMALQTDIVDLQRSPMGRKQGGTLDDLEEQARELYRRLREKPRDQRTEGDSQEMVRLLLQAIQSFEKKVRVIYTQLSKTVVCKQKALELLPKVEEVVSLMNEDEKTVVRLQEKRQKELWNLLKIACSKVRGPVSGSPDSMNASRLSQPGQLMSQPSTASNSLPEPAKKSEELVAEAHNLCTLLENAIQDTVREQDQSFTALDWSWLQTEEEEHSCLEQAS

T4 sequence (P23458 whole entry): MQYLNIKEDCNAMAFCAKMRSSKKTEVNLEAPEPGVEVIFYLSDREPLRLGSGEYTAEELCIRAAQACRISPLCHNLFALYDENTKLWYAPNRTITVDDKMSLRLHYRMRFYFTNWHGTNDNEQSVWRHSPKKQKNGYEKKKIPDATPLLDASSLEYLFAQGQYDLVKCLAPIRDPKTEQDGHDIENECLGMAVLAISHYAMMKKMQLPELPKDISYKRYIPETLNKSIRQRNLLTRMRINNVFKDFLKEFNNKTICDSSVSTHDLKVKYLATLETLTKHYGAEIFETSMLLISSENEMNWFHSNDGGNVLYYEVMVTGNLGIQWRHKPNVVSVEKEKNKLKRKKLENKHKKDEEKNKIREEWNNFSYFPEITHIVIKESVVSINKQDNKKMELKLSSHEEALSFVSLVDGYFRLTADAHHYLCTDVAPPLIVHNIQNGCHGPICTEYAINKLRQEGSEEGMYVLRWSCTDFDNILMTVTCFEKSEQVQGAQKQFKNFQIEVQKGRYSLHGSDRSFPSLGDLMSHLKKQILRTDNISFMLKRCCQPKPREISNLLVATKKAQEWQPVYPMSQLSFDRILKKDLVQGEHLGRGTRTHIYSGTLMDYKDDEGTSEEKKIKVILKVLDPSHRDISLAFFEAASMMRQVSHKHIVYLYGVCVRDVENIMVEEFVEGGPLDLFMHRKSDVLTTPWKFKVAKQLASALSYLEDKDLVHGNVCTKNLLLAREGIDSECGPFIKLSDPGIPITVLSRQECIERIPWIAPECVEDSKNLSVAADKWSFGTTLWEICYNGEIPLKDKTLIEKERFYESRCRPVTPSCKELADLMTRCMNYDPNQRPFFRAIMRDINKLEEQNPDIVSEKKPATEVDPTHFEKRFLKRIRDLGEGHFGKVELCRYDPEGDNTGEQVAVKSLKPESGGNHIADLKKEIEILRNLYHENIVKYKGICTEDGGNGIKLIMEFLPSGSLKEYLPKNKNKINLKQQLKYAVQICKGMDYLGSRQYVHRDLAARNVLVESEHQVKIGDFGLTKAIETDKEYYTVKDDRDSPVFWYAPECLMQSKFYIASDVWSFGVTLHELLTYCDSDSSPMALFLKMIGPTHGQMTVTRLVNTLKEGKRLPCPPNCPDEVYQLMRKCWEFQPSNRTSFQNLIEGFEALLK
T1 sequence (P29597 whole entry): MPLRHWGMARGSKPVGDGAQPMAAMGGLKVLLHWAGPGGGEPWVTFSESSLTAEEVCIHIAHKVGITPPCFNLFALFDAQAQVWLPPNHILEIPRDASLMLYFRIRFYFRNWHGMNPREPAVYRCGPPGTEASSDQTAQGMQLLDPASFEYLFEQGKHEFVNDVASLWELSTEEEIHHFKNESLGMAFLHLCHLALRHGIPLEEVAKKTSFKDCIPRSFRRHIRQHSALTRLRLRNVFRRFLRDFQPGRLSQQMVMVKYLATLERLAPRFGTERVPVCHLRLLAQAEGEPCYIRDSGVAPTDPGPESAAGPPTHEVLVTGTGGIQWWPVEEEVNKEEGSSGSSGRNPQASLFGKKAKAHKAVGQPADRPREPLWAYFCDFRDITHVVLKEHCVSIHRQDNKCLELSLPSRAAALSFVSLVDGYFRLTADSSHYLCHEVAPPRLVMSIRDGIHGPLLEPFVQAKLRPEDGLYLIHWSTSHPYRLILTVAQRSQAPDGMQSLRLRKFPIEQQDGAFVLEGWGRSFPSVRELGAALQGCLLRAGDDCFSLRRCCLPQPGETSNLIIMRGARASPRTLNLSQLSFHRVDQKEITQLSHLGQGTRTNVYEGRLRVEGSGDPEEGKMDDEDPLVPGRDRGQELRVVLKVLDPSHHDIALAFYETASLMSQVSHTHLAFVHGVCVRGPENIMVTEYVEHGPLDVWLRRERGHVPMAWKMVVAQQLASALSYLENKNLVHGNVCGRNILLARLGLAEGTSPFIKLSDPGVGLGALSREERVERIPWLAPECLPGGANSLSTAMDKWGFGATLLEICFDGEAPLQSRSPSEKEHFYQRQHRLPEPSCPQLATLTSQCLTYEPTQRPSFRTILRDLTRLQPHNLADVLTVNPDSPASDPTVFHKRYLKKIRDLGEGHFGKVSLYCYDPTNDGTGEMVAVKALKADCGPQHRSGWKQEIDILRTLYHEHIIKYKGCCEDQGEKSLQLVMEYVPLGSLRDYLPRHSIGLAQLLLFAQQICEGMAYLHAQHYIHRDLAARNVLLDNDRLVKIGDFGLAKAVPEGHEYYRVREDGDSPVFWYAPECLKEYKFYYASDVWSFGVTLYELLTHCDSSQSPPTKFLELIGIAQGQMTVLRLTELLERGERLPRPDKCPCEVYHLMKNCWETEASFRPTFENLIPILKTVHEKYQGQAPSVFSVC
T3 sequence (O60674 whole entry): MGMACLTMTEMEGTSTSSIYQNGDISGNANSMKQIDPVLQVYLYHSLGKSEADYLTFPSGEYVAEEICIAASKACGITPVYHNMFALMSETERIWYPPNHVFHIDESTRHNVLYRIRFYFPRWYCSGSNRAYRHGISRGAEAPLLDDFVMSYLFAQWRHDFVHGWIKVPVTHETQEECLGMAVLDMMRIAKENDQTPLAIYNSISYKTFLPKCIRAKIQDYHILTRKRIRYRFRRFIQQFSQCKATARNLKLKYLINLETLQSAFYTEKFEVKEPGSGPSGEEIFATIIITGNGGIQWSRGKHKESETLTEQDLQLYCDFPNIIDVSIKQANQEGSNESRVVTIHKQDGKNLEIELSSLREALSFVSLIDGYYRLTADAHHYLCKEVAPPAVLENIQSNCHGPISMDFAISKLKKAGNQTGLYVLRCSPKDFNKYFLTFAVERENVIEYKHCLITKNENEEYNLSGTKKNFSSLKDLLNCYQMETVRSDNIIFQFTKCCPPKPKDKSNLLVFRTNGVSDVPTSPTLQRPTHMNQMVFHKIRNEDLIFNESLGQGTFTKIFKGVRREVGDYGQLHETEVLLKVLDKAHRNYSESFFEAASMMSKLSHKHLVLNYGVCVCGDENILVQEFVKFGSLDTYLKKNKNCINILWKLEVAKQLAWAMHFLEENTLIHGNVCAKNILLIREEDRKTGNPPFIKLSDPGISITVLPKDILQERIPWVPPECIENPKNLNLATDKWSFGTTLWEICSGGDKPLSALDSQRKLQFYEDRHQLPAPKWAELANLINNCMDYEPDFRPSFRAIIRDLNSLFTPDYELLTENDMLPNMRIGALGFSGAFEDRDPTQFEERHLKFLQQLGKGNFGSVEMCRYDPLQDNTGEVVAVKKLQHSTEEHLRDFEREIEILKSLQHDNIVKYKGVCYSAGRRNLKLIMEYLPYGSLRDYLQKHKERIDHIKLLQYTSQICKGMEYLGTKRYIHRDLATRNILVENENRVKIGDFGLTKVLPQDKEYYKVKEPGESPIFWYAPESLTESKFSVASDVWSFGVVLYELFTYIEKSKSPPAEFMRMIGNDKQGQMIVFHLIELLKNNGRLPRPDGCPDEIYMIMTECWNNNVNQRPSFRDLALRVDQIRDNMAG
Chain of Tyrosine-protein kinase JAK2 (Homo sapiens, UniProt O60674, V617F) (O60674 whole entry V617F, the tested form may be a part): as the sequence (O60674 whole entry) above, with V617F counted along it
Chain of Voltage-gated inwardly rectifying potassium channel KCNH2 (Q12809 whole entry): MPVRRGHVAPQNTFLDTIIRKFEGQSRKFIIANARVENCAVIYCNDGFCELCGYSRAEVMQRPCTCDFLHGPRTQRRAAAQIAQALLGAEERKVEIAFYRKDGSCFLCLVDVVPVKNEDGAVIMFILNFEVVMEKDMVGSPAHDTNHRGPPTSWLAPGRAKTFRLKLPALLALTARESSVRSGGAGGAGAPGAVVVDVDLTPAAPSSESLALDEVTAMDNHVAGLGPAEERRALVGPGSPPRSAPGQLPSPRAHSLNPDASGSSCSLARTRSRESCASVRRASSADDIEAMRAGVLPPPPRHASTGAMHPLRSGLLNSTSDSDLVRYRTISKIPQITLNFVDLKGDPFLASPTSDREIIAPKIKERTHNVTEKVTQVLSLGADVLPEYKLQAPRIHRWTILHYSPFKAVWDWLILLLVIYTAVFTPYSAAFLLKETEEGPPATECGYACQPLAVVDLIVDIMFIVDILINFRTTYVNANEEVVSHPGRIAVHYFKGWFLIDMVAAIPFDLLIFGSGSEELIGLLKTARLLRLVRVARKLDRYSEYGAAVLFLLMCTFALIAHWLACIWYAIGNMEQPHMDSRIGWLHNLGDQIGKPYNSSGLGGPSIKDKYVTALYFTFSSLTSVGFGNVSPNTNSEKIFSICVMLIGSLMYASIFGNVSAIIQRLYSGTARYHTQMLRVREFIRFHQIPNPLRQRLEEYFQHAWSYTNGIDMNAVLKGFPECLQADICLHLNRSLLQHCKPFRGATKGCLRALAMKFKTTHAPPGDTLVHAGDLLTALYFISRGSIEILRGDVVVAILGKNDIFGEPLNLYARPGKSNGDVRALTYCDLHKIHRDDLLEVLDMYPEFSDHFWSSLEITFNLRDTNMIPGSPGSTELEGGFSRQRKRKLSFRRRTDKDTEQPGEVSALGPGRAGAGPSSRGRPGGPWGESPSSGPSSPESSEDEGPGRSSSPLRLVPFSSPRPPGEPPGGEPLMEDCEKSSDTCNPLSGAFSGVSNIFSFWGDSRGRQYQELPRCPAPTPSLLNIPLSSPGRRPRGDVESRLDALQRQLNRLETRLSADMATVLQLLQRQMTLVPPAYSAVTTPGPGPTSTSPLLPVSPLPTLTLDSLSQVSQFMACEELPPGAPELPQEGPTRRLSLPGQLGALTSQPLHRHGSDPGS

CNC(=O)c1cnc(Nc2ccc(F)cn2)cc1Nc1ccccc1S(C)(=O)=O
IC50 [1]: 63 nM

CNC(=O)c1nnc(NC(=O)C2CC2)c2[nH]c(-c3ccc(N)cc3OC)cc12
half-life [2]: > 2.32 h | IC50 [3]: > 30000 nM

CC(C)CCN1c2nc(Nc3cc(F)c(O)c(F)c3)ncc2N(C)C(=O)C1(C)C
IC50 [4]: 123 nM

CC(C)CCN1c2nc(Nc3cc(F)c(O)c(F)c3)ncc2N(C)C(=O)C1C (stereo not drawn)
IC50 [4]: 658 nM

NC(=O)c1ccccc1Nc1cc(Nc2ccc(F)cn2)ncc1C(N)=O
IC50 [1]: 37 nM | IC50 [5]: > 2000 nM

[2H]C([2H])([2H])NC(=O)c1nnc(NC(=O)C2CC2)cc1Nc1cccc(-c2ncn(C)n2)c1OC [DEUCRAVACITINIB]
solubility [6]: < 1 µg/mL | IC50 [7]: 3 nM | half-life [2]: > 2 h

CS(=O)(=O)N1CC[C@H](C#CC(=O)N2CCC[C@@H](c3ccc(Cl)c(Cl)c3)C2)C1
IC50 [8]: 32 nM | IC50 [9]: 46 nM

O=c1cc(-c2ccccc2)nc2c(-c3cccc([N+](=O)[O-])c3)c(C(F)(F)F)[nH]n12
IC50 [10]: 14000 nM | IC50 [11]: 50000 nM | IC50 [12]: 9700 nM

c1nc2nc(Nc3ccc(N4CCOCC4)cc3)nc(NC3CCCCC3)c2[nH]1 [REVERSINE]
IC50 [13]: 350 nM | IC50 [14]: 350 nM

Nc1nc(CSc2nnc(NCC3CCCC3)s2)nc(Nc2ccc(F)cc2)n1
Kd [15]: 149000 nM | Kd [16]: 65000 nM

CNC(=O)c1cnc(Nc2ccc(C#N)cn2)cc1Nc1cccc(-c2ncn(C)n2)c1OC
IC50 [12]: 0.3 nM

O=C(Nc1c[nH]nc1-c1nc2cc(CN3CCOCC3)ccc2[nH]1)NC1CC1 [AT-9283]
IC50 [14]: 60 nM

CNc1nc2sc(-c3cccc([C@@H](C)NC(=O)c4ccccc4S(C)(=O)=O)c3)nc2c2c1ncn2C
inhibition [17]: 99% | inhibition [18]: > 96%
